Measurements reported in ChEMBL document CHEMBL1133613, “1-[4-(3-Phenylalkyl)phenyl]-2-aminopropanes as 5-HT(2A) partial agonists” (J Med Chem, 2000).
pKi: −log10 of the molar value.

Columns and labels:
[1] = target: Serotonin receptor 2a and 2c (5HT2A and 5HT2C) (Rattus norvegicus) (UniProt P08909+P14842); assay: Relative affinities for rat 5-HT2C receptors and 5-HT2A receptors; format: protein assay
[2] = target: 5-hydroxytryptamine receptor 2A (Rattus norvegicus, UniProt P14842); assay: Displacement of [3H]ketanserin from NIH3T3 cells stably expressing rat 5-hydroxytryptamine 2A receptor; format: cell-based
[3] = target: T1, 5-hydroxytryptamine receptor 2C (Rattus norvegicus, UniProt P08909); assay: Displacement of [3H]mesulergine from A9 cells stably expressing rat 5-hydroxytryptamine 2C receptor; format: cell-based
T1 sequence (P08909 whole entry): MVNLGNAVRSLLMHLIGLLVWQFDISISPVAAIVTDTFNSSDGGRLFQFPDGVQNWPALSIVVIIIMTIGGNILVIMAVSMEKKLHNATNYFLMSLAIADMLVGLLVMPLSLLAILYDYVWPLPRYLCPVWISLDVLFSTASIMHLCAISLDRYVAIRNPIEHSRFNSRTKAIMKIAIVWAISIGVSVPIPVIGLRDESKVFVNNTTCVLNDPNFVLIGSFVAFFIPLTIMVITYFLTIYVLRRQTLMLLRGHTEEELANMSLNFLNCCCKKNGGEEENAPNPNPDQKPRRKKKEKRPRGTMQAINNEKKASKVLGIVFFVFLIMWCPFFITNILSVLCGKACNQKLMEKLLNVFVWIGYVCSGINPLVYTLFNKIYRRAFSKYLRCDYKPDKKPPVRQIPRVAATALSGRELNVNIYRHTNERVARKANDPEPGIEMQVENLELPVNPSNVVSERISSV

Chain of Serotonin receptor 2a and 2c (5HT2A and 5HT2C) (Rattus norvegicus) (P14842 whole entry, looked up, one chain of several): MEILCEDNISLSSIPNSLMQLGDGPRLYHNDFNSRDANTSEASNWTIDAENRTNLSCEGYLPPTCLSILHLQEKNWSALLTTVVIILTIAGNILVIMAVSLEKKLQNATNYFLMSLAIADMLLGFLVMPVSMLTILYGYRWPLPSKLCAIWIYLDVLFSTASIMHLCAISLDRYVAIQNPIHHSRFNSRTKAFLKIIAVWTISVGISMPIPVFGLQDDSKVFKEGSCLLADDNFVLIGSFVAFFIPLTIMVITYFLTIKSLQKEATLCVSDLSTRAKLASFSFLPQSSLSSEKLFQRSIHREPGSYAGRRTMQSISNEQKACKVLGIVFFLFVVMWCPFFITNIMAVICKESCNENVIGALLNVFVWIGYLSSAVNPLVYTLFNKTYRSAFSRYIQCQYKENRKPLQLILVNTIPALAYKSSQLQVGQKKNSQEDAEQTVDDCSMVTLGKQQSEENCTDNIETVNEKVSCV
Chain of 5-hydroxytryptamine receptor 2A (P14842 whole entry): as the sequence (P14842 whole entry, looked up, one chain of several) above

## COc1cc(CC(C)N)c(OC)cc1CCc1ccccc1 (configuration not stated)
[1]
  Selectivity: 1.5
[2]
  pKi: 7.02
[3]
  pKi: 6.85

## COc1cc(CC(C)N)c(OC)cc1CCCc1ccc(Cl)cc1 (configuration not stated)
[1]
  Selectivity: 1.3
[2]
  pKi: 7.92
[3]
  pKi: 7.80

## COc1cc(CC(C)N)cc(OC)c1Br (configuration not stated)
[2]
  pKi: 6.68
[3]
  pKi: 6.24

## COc1cc(CC(C)N)ccc1CCCc1ccccc1 (configuration not stated)
[1]
  Selectivity: 7.9
[2]
  pKi: 7.77
[3]
  pKi: 6.87

## COc1cc(CCCc2ccccc2)ccc1CC(C)N (configuration not stated)
[1]
  Selectivity: 11.1
[2]
  pKi: 8.10
[3]
  pKi: 7.05

## COc1cccc(CC(C)N)c1 (configuration not stated)
[2]
  pKi: < 5.00
[3]
  pKi: < 5.00

## NCCc1ccc(CCCc2ccccc2)cc1
[1]
  Selectivity: 8.9
[2]
  pKi: 7.22
[3]
  pKi: 6.28

## COc1cc(CC(C)N)cc(OC)c1CCCc1ccccc1 (configuration not stated)
[1]
  Selectivity: 10
[2]
  pKi: 8.40
[3]
  pKi: 7.40

## COc1cccc(CC(C)N)c1OC (configuration not stated)
[2]
  pKi: 5.37
[3]
  pKi: < 5.00

## COc1c(CCCc2ccccc2)ccc(CC(C)N)c1OC (configuration not stated)
[1]
  Selectivity: 19.8
[2]
  pKi: 8.40
[3]
  pKi: 7.10

## COc1cc(C[C@@H](C)N)cc(OC)c1
[2]
  pKi: < 5.00
[3]
  pKi: < 5.00

## COc1ccc(OC)c(CC(C)N)c1 (configuration not stated)
[2]
  pKi: 5.33
[3]
  pKi: < 5.00

## COc1cccc(OC)c1CC(C)N (configuration not stated)
[2]
  pKi: < 5.00
[3]
  pKi: < 5.00

## COc1cc(CCCc2ccccc2)cc(OC)c1CC(C)N (configuration not stated)
[1]
  Selectivity: 13
[2]
  pKi: 8.52
[3]
  pKi: 7.41

## CC(N)Cc1ccc(CCCc2ccccc2)cc1 (configuration not stated)
[1]
  Selectivity: 6.8
[2]
  pKi: 7.11
[3]
  pKi: 6.28

## COc1cc(CCCc2ccccc2)c(OC)cc1CCN
[1]
  Selectivity: 0.2
[2]
  pKi: 6.82
[3]
  pKi: 7.55

## COc1cc(CCN)c(OC)cc1Br
[2]
  pKi: 7.80

## COc1cc(CCc2ccccc2)c(OC)cc1CCN
[1]
  Selectivity: 2
[2]
  pKi: 7.43
[3]
  pKi: 7.12

## COc1cc(CC(C)N)c(OC)cc1CCCc1ccccc1 (configuration not stated)
[1]
  Selectivity: 1.7
[2]
  pKi: 7.52
[3]
  pKi: 7.30

## COc1ccccc1CC(C)N (configuration not stated)
[2]
  pKi: < 5.00
[3]
  pKi: < 5.00

## COc1ccc(OC)c(CCN)c1
[2]
  pKi: 5.52
[3]
  pKi: 5.26

## COc1cc(CCCCc2ccccc2)c(OC)cc1CCN
[1]
  Selectivity: 0.2
[2]
  pKi: 6.94
[3]
  pKi: 7.60

## COc1cc(CC(C)N)c(OC)cc1CCCCc1ccccc1 (configuration not stated)
[1]
  Selectivity: 0.8
[2]
  pKi: 8.10
[3]
  pKi: 8.22

## COc1ccc(CCCc2cc(OC)c(CC(C)N)cc2OC)cc1 (configuration not stated)
[1]
  Selectivity: 0.9
[2]
  pKi: 7.55
[3]
  pKi: 7.62
